For orientation: Ki means a measure of affinity in units of concentration, obtained from inhibition or displacement. Read a high Ki as weaker binding.

Each structure is given as a SMILES string.

This is an account of results in ChEMBL document CHEMBL1129089, “N-(substituted-phenyl) piperazines: antagonists with high binding and functional selectivity for dopamine D4 receptors” (Bioorg Med Chem Lett, 1996).

One experiment concerns the target D(2) dopamine receptor (Homo sapiens, UniProt P14416). Put plainly: Binding affinity at cloned human Dopamine receptor D2 expressed in CHO cells, using [125I]iodosulpiride as radioligand. The experiment is classed as cell-based.
The target of the next experiment is T1, D(4) dopamine receptor (Homo sapiens, UniProt P21917).
T1 sequence (P21917 whole entry): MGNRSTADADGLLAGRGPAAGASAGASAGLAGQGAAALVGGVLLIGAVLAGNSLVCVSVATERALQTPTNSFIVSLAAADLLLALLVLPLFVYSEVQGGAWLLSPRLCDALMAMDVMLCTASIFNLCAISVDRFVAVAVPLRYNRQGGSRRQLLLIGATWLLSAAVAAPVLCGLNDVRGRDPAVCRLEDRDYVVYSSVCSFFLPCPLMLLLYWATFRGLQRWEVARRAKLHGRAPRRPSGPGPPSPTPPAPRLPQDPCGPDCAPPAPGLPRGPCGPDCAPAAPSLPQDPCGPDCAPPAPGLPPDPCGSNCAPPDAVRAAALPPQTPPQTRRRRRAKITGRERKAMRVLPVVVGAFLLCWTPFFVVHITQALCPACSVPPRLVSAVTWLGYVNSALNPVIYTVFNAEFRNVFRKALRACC
In words: Binding affinity at cloned human Dopamine receptor D4 expressed in HEK 293 cells, using [3H]nemonapride as radioligand. The experiment is classed as cell-based, HEK293.

Experiment [1] deals with Dopamine receptors; D2 & D4 (Homo sapiens) (UniProt P14416+P21917). In words: Selectivity of D2 receptor over D4 receptor. The experiment is classed as protein assay.
Dopamine receptors; D2 & D4 (Homo sapiens), sequence (P14416 whole entry, looked up, one chain of several): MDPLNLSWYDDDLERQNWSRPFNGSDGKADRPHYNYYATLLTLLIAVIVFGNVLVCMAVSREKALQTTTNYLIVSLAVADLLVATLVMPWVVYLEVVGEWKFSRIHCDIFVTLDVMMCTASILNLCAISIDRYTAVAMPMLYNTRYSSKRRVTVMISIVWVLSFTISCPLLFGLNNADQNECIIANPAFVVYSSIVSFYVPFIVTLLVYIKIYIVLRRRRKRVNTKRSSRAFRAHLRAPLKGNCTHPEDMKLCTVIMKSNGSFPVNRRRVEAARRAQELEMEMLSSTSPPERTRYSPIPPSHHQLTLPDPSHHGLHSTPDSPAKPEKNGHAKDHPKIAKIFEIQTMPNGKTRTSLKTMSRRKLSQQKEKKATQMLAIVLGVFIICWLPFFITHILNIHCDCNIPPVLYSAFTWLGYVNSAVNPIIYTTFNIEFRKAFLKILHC

D(2) dopamine receptor, sequence (P14416 whole entry): as the sequence (P14416 whole entry, looked up, one chain of several) above

Consider `CCC(C)(C)C(=O)NCCCCN1CCN(c2ccc(Cl)cc2)CC1`, for which the Ki is 1000 nM on D(2) dopamine receptor and 15.8 nM on D(4) dopamine receptor. Moreover, the Selectivity in experiment [1] stood at 63.
For `COc1ccc(N2CCN(CCCCNC(=O)C(C)(C)C)CC2)cc1` the same measures were over 10000 nM, 316 nM and over 30.
The corresponding values for `COc1cc(Cl)ccc1N1CCN(CCCCNC(=O)C(C)(C)C)CC1` are 158 nM, 15.8 nM and 10.
As to `CC1CN(CCCCNC(=O)C(C)(C)C)CCN1c1ccc(Cl)cc1` (stereo not drawn), the Ki on D(2) dopamine receptor is 1580 nM; on D(4) dopamine receptor, 63.1 nM.
Consider `CC(C)(C)C(=O)NCCN1CCN(c2ccc(Cl)cc2)CC1`, for which the Ki on D(2) dopamine receptor was 2510 nM; at D(4) dopamine receptor, 25.1 nM. The compound further registered a Selectivity in experiment [1] of 100.
For `CC(C)(C)C(=O)NCCCCN1CCN(c2ccccc2Cl)CC1` the same measures were 63.1 nM, 79.4 nM and 1.
The corresponding values for `CC(C)(C)C(=O)NCCCCN1CCN(c2ccc(F)cc2)CC1` are 2000 nM, 126 nM and 15.
The corresponding values for `CC(C)(C)C(=O)NCCCCCN1CCN(c2ccc(Cl)cc2)CC1` are 398 nM, 126 nM and 3.
Regarding `CC(C)(C)C(=O)NCCCN1CCN(c2ccc(Cl)cc2)CC1`, the Ki on D(2) dopamine receptor is over 10000 nM; on D(4) dopamine receptor, 200 nM. In addition, the Selectivity in experiment [1] was over 50.
With `O=C(NCCCCN1CCN(c2ccc(Cl)cc2)CC1)C12CC3CC(CC(C3)C1)C2`, the Ki at D(2) dopamine receptor was 631 nM; at D(4) dopamine receptor, 20 nM. The Selectivity in experiment [1] turned out to be 30.
For `CC(C)(C)C(=O)NCCCCN1CCN(c2ccccc2)CC1` the same measures were 794 nM, 316 nM and 3.
Turning to `O=C(NCCN1CCN(c2ccc(Cl)cc2)CC1)C12CC3CC(CC(C3)C1)C2`, the figures for the Ki at D(2) dopamine receptor and on D(4) dopamine receptor were 398 nM and 5.01 nM, respectively. The compound further gave a Selectivity in experiment [1] of 80.
For `CC(C)(C)C(=O)NCCCCN1CCN(c2ccc(Br)cc2)CC1` the same measures were 1580 nM, 31.6 nM and 50.
The corresponding values for `CC(C)(C)C(=O)NCCCCN1CCN(c2ccc(Cl)cc2)CC1` are 2510 nM, 12.6 nM and 200.
The corresponding values for `CCCC(C)(C)C(=O)NCCCCN1CCN(c2ccc(Cl)cc2)CC1` are 1580 nM, 12.6 nM and 125.
Take `CC1(C(=O)NCCN2CCN(c3ccc(Cl)cc3)CC2)CCCCC1`: the Ki was 794 nM on D(2) dopamine receptor and 7.94 nM at D(4) dopamine receptor. In experiment [1], this compound had a Selectivity of 100.
For `COc1ccccc1N1CCN(CCCCNC(=O)C(C)(C)C)CC1` the same measures were 20 nM, 12.6 nM and 2.
As to `CC(C)(C)C(=O)NCCCCN1CCN(c2cccc(Cl)c2)CC1`, the values for the Ki at D(2) dopamine receptor and on D(4) dopamine receptor were 251 nM and 100 nM, respectively. The Selectivity in experiment [1] worked out at 3.
The corresponding values for `O=C(NCCCCN1CCN(c2ccc(Cl)cc2)CC1)c1ccccc1` are 398 nM, 158 nM and 3.
For `CC(C)(C)C(=O)NCCCCN1CCN(c2ccc(C(F)(F)F)cc2)CC1` the same measures were 3980 nM, 50.1 nM and 80.
`CCCC(C)(C)C(=O)NCCN1CCN(c2ccc(Cl)cc2)CC1`: the Ki on D(2) dopamine receptor was 2510 nM; at D(4) dopamine receptor it was 7.94 nM. The compound also gave a Selectivity in experiment [1] of 320.
For `CC(C)C(=O)NCCCCN1CCN(c2ccc(Cl)cc2)CC1` the same measures were 2000 nM, 126 nM and 16.
In the case of `CCC(C)(C)C(=O)NCCN1CCN(c2ccc(Cl)cc2)CC1`, the Ki at D(4) dopamine receptor is 7.94 nM. Moreover, the Selectivity in experiment [1] is 320.
With `CC1(C(=O)NCCCCN2CCN(c3ccc(Cl)cc3)CC2)CCCCC1`, the Ki was 1000 nM at D(2) dopamine receptor and 10 nM at D(4) dopamine receptor. This compound also had a Selectivity in experiment [1] of 100.
For `CCCCC(C)(C)C(=O)NCCN1CCN(c2ccc(Cl)cc2)CC1` the same measures were 1580 nM, 31.6 nM and 50.
For `CC(=O)NCCCCN1CCN(c2ccc(Cl)cc2)CC1` the same measures were 1580 nM, 1260 nM and 1.
In the case of `CC(C)(C)C(=O)NCCCCN1CCN2c3ccc(Cl)cc3CCC2C1` (stereo not drawn), the Ki was 398 nM at D(2) dopamine receptor and 63.1 nM at D(4) dopamine receptor.
